Assay results from patent US20220356174A1, “PYRIDIN-2-ONE COMPOUNDS USEFUL AS SMARCA2 ANTAGONISTS” (Epizyme, Inc., priority 2018, published 2022).
pIC50: −log10 of the molar value. Read-outs that look alike come from different tables or passages of the source.

How the values were obtained:
FL-SMARCA4 = FL-SMARCA4 (Homo sapiens, UniProt P51532); test: SMARCA4 ATPase activity assay (ADP-Glo, chicken mononucleosome substrate)
[1] = molecular target: T1, FL-SMARCA2 (full-length human SMARCA2 isoform 1) (Homo sapiens, UniProt P51531); test: SMARCA2 ATPase activity assay (ADP-Glo, chicken mononucleosome substrate); type: biochemical; conditions: ATP 250 uM
T1 construct: FLAG tag (YKDDDDK) (C); made in house; host or cells: Sf21 insect cells (baculovirus, pFastBacI)

[2] = FL-SMARCA4 IC50, Table 3.2, ATPase assay, enzyme 5 nM, ATP 250 uM, chicken mononucleosome 10 nM, 30 min preincubation
[3] = Table 3.1, ATPase assay, enzyme 5 nM, chicken mononucleosome 10 nM, 30 min preincubation
[4] = FL-SMARCA4 IC50, Table 3b.2, SMARCA4 5 nM, ATP 250 uM, mononucleosome 10 nM
[5] = Table 3b.1, SMARCA2 5 nM, mononucleosome 10 nM
[6] = Table 3d.1, ATPase assay, enzyme 5 nM, chicken mononucleosome 10 nM, 30 min preincubation, read-out: FL-SMARCA2 IC>50
[7] = FL-SMARCA4 IC>50, Table 3c.2, ATPase assay, enzyme 5 nM, ATP 250 uM, chicken mononucleosome 10 nM, 30 min preincubation
[8] = Table 3c.1, ATPase assay, enzyme 5 nM, chicken mononucleosome 10 nM, 30 min preincubation

T1 sequence (P51531 with tags, fused parts or gaps): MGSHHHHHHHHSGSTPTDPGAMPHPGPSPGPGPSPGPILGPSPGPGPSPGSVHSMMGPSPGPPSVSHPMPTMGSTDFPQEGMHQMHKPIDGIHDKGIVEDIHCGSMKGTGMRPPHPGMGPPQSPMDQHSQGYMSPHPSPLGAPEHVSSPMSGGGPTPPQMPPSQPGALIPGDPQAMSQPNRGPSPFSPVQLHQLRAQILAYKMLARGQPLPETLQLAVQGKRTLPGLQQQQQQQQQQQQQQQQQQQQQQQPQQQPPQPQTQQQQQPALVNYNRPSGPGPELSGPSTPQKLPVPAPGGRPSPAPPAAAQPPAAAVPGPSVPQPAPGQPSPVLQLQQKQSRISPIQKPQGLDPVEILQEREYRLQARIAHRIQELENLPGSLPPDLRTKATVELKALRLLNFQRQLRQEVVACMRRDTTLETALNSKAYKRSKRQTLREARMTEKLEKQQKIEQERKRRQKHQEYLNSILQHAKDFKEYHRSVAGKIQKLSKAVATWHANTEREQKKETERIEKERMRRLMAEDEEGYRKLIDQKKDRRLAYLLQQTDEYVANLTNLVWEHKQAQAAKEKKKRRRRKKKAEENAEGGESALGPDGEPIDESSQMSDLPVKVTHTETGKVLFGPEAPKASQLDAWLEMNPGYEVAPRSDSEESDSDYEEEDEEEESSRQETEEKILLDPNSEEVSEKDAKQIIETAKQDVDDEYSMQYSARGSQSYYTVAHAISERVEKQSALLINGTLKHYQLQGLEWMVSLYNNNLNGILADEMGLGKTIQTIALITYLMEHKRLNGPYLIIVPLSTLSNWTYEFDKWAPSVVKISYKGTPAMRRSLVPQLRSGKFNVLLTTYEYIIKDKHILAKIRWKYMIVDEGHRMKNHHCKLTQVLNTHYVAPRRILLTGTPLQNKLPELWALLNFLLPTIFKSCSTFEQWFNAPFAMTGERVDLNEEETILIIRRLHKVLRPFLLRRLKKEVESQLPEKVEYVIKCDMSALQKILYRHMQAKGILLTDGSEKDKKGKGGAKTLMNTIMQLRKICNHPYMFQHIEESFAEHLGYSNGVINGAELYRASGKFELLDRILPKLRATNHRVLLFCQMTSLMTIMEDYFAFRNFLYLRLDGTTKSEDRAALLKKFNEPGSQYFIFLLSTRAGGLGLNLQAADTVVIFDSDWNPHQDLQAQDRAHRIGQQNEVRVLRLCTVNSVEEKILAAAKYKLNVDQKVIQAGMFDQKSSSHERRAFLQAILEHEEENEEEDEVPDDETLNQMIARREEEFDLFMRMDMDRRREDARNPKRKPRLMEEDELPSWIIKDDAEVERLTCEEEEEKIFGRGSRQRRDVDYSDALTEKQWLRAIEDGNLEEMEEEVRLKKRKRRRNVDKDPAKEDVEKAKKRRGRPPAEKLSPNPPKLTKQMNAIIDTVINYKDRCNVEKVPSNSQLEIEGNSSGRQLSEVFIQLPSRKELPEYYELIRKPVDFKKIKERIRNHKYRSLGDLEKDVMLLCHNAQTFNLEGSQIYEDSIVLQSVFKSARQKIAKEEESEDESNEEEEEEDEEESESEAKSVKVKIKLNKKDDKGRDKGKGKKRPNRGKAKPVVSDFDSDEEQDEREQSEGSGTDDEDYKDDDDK
FL-SMARCA4, sequence (P51532 whole entry, canonical isoform): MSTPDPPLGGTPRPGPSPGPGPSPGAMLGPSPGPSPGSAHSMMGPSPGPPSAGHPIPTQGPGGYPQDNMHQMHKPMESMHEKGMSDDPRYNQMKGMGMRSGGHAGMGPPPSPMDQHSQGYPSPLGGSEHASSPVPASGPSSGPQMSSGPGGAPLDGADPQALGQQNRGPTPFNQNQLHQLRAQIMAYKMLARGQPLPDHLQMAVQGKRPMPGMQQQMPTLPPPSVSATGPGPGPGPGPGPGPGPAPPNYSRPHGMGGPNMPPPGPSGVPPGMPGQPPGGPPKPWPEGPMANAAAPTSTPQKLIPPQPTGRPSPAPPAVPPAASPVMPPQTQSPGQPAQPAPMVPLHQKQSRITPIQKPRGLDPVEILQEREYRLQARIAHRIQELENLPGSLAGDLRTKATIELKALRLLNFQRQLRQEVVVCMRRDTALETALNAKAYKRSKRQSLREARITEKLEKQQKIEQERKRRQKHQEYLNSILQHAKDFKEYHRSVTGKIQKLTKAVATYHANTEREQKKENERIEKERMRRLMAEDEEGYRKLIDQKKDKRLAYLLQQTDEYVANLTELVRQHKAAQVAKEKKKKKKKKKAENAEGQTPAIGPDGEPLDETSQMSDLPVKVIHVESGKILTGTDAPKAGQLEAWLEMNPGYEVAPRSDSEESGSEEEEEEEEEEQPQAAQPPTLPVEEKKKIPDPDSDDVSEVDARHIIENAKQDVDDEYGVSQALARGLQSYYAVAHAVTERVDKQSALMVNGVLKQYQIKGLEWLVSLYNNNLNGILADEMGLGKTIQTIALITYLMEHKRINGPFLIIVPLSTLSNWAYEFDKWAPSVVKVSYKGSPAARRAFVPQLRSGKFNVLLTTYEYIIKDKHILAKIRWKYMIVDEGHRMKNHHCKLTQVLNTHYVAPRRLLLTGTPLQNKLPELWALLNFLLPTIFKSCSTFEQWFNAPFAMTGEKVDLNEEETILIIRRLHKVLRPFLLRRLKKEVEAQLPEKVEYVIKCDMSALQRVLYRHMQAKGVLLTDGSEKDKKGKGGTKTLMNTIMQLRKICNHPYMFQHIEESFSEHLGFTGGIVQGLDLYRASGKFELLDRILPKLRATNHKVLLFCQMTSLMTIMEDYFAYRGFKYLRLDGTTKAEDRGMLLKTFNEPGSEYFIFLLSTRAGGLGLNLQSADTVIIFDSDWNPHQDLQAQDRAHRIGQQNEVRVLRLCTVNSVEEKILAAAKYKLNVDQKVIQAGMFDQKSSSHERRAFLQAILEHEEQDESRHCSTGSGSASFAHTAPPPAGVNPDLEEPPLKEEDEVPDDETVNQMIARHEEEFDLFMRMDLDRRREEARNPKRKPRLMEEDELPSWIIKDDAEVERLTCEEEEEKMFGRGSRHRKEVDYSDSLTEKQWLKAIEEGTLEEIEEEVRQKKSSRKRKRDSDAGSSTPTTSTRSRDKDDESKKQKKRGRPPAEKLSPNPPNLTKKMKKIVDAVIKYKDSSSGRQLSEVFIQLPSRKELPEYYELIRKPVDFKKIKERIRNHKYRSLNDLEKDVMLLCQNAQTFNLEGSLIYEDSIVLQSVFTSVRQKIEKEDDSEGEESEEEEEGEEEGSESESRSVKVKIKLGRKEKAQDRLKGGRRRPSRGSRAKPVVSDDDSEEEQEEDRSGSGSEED

| pIC50 (FL-SMARCA4; [2]) | pIC50 [1, 3] | SMILES | further results |
| --- | --- | --- | --- |
| – | – | CCn1cc(NC(=O)c2nc3cc(F)c(Cl)cc3s2)ccc1=O [Compound 46a] | pIC50 (FL-SMARCA4; FL-SMARCA4 IC50, Table 3a.2, SMARCA4 5 nM, ATP 250 uM, mononucleosome 10 nM): 4.39; pIC50 ([1]; Table 3a.1, SMARCA2 5 nM, mononucleosome 10 nM): 4.37 |
| 6.18 | 6.95 | N#Cc1[nH]c(C(=O)Nc2cc(Cl)c(=O)n(CCF)c2)cc1Cl [Compound 241] | – |
| 6.25 | 6.76 | CCn1cc(NC(=O)c2cc(Cl)c(Cl)s2)cc(F)c1=O [Compound 109] | – |
| 6.95 | 7.51 | O=C(Nc1cc(F)c(=O)n(CC(F)F)c1)c1cc(C#Cc2cccnc2)c(Cl)s1 [Compound 329] | – |
| 5.66 | 6.47 | CCn1cc(NC(=O)c2cc(Cl)c(Cl)n2C)cc(Cl)c1=O [Compound 133] | – |
| 5.05 | 5.91 | N#Cc1cc(NC(=O)c2cc(Cl)c(Cl)s2)cn(CCF)c1=O [Compound 193] | – |
| 4.96 | 5.82 | O=C(Nc1ccc(=O)n(CCF)c1)c1cc(Cl)c(Cl)[nH]1 [Compound 157] | – |
| 6.05 | 6.63 | O=C(Nc1cc(Cl)c(=O)n(CCF)c1)c1cc(Cl)n[nH]1 [Compound 156] | – |
| – | – | CCn1cc(NC(=O)c2ccc(F)c(Cl)c2)ccc1=O [Compound 8b] | pIC50 (FL-SMARCA4; [4]): < 4.30; pIC50 [1, 5]: < 4.30 |
| < 4.30 | < 4.30 | CCn1cc(NC(=O)c2cccn2C)ccc1=O [Compound 13] | – |
| – | – | Cn1cc(NC(=O)C(C)(C)Oc2ccc(C#N)cc2)cc(Cl)c1=O [Compound 3d] | pIC50 (FL-SMARCA4; FL-SMARCA4 IC50): < 4.30; pIC50 [1, 6]: < 4.30 |
| 4.59 | 4.81 | CN(C)CCCNc1cc(NC(=O)c2cc(Cl)c(Cl)s2)cn(CCF)c1=O [Compound 262] | – |
| – | – | O=C(Nc1cc(F)c(=O)n(CC(F)F)c1)c1cc(N2CCN(c3ccncc3)CC2)c(Cl)s1 [Compound 119c] | pIC50 (FL-SMARCA4; [7]): 4.79; pIC50 [1, 8]: 5.21 |
| < 4.30 | < 4.30 | CCn1cc(NC(=O)c2cc(C(F)(F)F)nn2C)ccc1=O [Compound 15] | – |
| – | – | CSc1cc(NC(=O)c2cc(F)c(Cl)s2)cn(CC(F)F)c1=O [Compound 50d] | pIC50 (FL-SMARCA4; FL-SMARCA4 IC50): < 4.30; pIC50 [1, 6]: 4.46 |
| < 4.30 | < 4.30 | Cn1c(C(=O)Nc2ccc(=O)[nH]c2)cc(Cl)c1Cl [Compound 37] | – |
| – | – | N#Cc1ccc(C(=O)Nc2cc(F)c(=O)n(CCF)c2)cc1Cl [Compound 19b] | pIC50 (FL-SMARCA4; [4]): 4.90; pIC50 [1, 5]: 5.69 |

| pIC50 (FL-SMARCA4; [2]) | pIC50 [1, 3] | SMILES | further results |
| --- | --- | --- | --- |
| < 4.30 | < 4.30 | CCn1cc(NC(=O)c2cc(Cl)n(C)c2Cl)ccc1=O [Compound 96] | – |
| 4.41 | 5.21 | O=C(Nc1cc(F)c(=O)n(CCF)c1)c1cc(C(F)(F)F)no1 [Compound 264] | – |
| 4.53 | 5.12 | Cn1c(C(=O)Nc2cc(Cl)c(=O)n(CC(F)(F)F)c2)cnc1Cl [Compound 195] | – |
| 5.03 | 6.18 | CSc1cc(C(=O)Nc2cc(F)c(=O)n(CC(F)F)c2)sc1Cl [Compound 341] | – |
| < 4.30 | 4.71 | CCn1cc(NC(=O)c2ccc(F)s2)ccc1=O [Compound 26] | – |
| < 4.30 | < 4.30 | CCn1cc(NC(=O)c2csc(-c3ccc(C)n3C)n2)ccc1=O [Compound 6] | – |
| < 4.30 | < 4.30 | CCn1cc(NC(=O)c2ncc(Cl)s2)ccc1=O [Compound 56] | – |
| 6.55 | 6.97 | N#Cc1cc(C(=O)Nc2ccc(=O)n(CC(F)(F)F)c2)sc1C#N [Compound 198] | – |
| – | – | O=C(Nc1cc(F)c(=O)n(CC(F)F)c1)c1cc(C#Cc2cccc3c2CNC3=O)c(Cl)s1 [Compound 137c] | pIC50 (FL-SMARCA4; [7]): 6.25; pIC50 [1, 8]: 6.52 |
| < 4.30 | < 4.30 | Cn1cc(NC(=O)c2cc(Cl)cs2)cc(Br)c1=O [Compound 8] | – |
| – | – | CCn1cc(NC(=O)[C@@H]2CCC[C@H](Cl)C2)ccc1=O [Compound 13b] | pIC50 (FL-SMARCA4; [4]): < 4.30; pIC50 [1, 5]: < 4.30 |
| < 4.30 | < 4.30 | CNC(=O)c1ccc(C(=O)Nc2cc(F)c(=O)n(CCF)c2)s1 [Compound 304] | – |
| – | – | CCn1nc(NC(=O)c2cnc(Cl)s2)ccc1=O [Compound 20d] | pIC50 (FL-SMARCA4; FL-SMARCA4 IC50): 4.54; pIC50 [1, 6]: 5.13 |
| – | – | O=C(Nc1cc(F)c(=O)n(CC(F)F)c1)c1cc(C#CC2COC2)c(F)s1 [Compound 108c] | pIC50 (FL-SMARCA4; [7]): 6.70; pIC50 [1, 8]: 7.09 |
| < 4.30 | < 4.30 | CCc1sc(C(=O)Nc2ccc(=O)n(CC)c2)cc1Cl [Compound 95] | – |
| 4.44 | 5.12 | Cn1nc(Cl)cc1C(=O)Nc1cc(F)c(=O)n(CCF)c1 [Compound 233] | – |
| 6.08 | 6.38 | CCn1cc(NC(=O)c2cc(C#N)c(Cl)s2)ccc1=O [Compound 106] | – |
